Experimental data reported in patent US12590131B2, “Antimicrobial peptides with alpha-core helices” (priority 2017, dated 2026).

System: panel of prototypic gram-positive (S. aureus), gram-negative (S. typhimurium, P. aeruginosa, A. baumannii) and fungal (C. albicans) pathogens
Test: Radial diffusion assay for microbicidal activity, whole pathogen panel
Format: cell-based
Details: 10 μg peptide
Protocol: Select candidate microbicidal peptides were commercially synthesized by BioMatik (Biomatik USA, Wilmington, Delaware). Lyophilized peptides were reconstituted with ddIH20 and stored in aliquots at −20° C. LL-37 (Peptides International, Louisville, KY), a prototypic human AHAP, was used as a comparator in microbicidal assays.
Putative antimicrobial peptides were assayed for microbicidal activity using a well-established radial diffusion method modified to pH 5.5 or 7.5. A panel of microorganisms was tested: Gram-positive Staphylococcus aureus (ISP 479C, ISP 479R); Gram-negative Salmonella typhimurium (MS 5996s, MS 14028), Pseudomonas aeruginosa (PA01), Acinetobacter baumanni (19606) and the fungus Candida albicans (36082S, 36082R). Logarithmic phase organisms were inoculated (10^6 CFU/ml) into buffered agarose, and poured into plates. Peptides (10 μg) were introduced into wells in the seeded matrix, and incubated for 3 h at 37° C. Nutrient overlay medium was applied, and assays incubated at 37° C. or 30° C. for bacteria or fungi, respectively. After 24h, zones of inhibition were measured. Independent experiments were repeated a minimum of two times.

tIL-5 (KRFIEKLRTFLRKLSRGAK)
microbicidal activity (zones of inhibition) (pH 7.5 and pH 5.5, FIG. 9): markedly potent against all organisms

hIL7 (LCFLKRLLQEIKTCWNKILMGTKEH)
microbicidal activity (zones of inhibition) (pH 5.5): retained significant activity
microbicidal activity (zones of inhibition) (pH 7.5): somewhat less potent

hIL-21 (KEFLERFKSLLQKMIHQHLSSRTHGSEDS)
microbicidal activity (zones of inhibition) (pH 5.5): retained significant activity
microbicidal activity (zones of inhibition) (pH 7.5): somewhat less potent

hIL-13 (EVAQFVKDLLLHLKKLFREGRFN)
microbicidal activity (zones of inhibition) (pH 5.5): retained significant activity
microbicidal activity (zones of inhibition) (pH 7.5): somewhat less potent

hIFN-γ (AIHELIQVMAELSPAAKTGKRKRSQMLFRGRRASQ)
relative potency at pH 7.5 versus pH 5.5: somewhat more potent at pH 7.5 than 5.5
microbicidal activity (zones of inhibition) (pH 7.5 and pH 5.5, FIG. 9): significant activity against most organisms

bIFN-γ (KAISELYNVITELSKSNSKMRKRRQNLFRGWKASK)
relative potency at pH 7.5 versus pH 5.5: somewhat more potent at pH 7.5 than 5.5
microbicidal activity (zones of inhibition) (pH 7.5 and pH 5.5, FIG. 9): significant activity against most organisms
